Test system: human myeloma cell line MM.1S
Assay: SILAC acetylated-lysine peptide profiling, HDAC inhibitor vs DMSO (light/heavy ratio)
Format: cell-based
Text: An embodiment of the invention comprises utilizing the SILAC method in order to quantitate changes in protein expression between two or more populations of cells. The SILAC method is a technique based on mass spectrometry that detects differences in protein abundance among samples using non-radioactive isotopic labeling. The SILAC method is known in the art, and described in detail in Ong et al., “Stable Isotope Labeling by Amino Acids in Cell Culture, SILAC, as a Simple and Accurate Approach to Expression Proteomics”, Molecular & Cellular Proteomics, vol. 1, pp. 376-386 (2002), which is incorporated herein by reference in its entirety.
Briefly, the SILAC method involves growing two populations of cells in cell culture. The first population of cells is grown in growth media containing normal amino acids (“normal media”). The second population of cells is grown in media lacking a standard essential amino acid (such as lysine), but is then supplemented with a non-radioactive, isotopically labeled form of that essential amino acid (such as lysine labeled with ^13C atoms, rather than normal ^12C atoms), which is called “heavy media”. When the two populations of cells are each growing in the medium, they incorporate the amino acids into all of their proteins. The growth of cells maintained in the heavy media is no different from that in normal media. All peptides containing the heavy amino acids are heavier than their normal counterparts. The cells from each of the two populations of cells are lysed. The lysates from each of the two cell populations are then combined. The combined cell lysates are then analyzed by mass spectrometry. Pairs of chemically identical peptides of different stable isotope composition can be differentiated in a mass spectrometer due to their difference in mass. The ratio of peak intensities in the mass spectrum for such peptide pairs reflects the abundance ratio for the two proteins.
This example describes SILAC studies that were performed to compare the effects of three different HDAC inhibitors (Compound A, Compound B, and tubastatin A) to a control on a human multiple myeloma cell line. The HDAC inhibitors were also compared amongst themselves to determine differences in their effects.
A human myeloma cell line MM.1S was grown using either ^12C (light) or ^13C (heavy) lysine containing culture medium. The “heavy” cells were treated with DMSO as the control, and the “light” cells were treated with a single HDAC inhibitor at 37° C. for 6 hours. The heavy and light cells were lysed, and the lysates were mixed in 1:1 ratio and digested with the protease trypsin. The acetylated lysine containing peptides (due to the action of the HDAC inhibitor) in the digested peptide pool were captured by a non-specific anti-acetylated lysine antibody cocktail (the antibodies identify both light and heavy acetylated peptides), and subjected to mass spectrometry analysis in order to identify thousands of individual peptides.
Thousands of peptides were identified in pairs (^12C and ^13C) due to their known mass differences. The amino acid sequence and quantitative ratio (Light/Heavy) of a given peptide in two differentially treated cell lysates were then determined and annotated with their possible protein (gene) sources.
As stated above, three HDAC inhibitors (Compound A, Compound B, and Tubastatin A) were used. Thus, the SILAC method was performed three times, with a different HDAC inhibitor compared to a control each time. Accordingly, there are three pairs of quantitative data in the table below, i.e., Compound A:DMSO, Compound B:DMSO, and Tubastatin A:DMSO. A cut-off of 1.30 fold of change (increase or decrease) was then used to determine “changed” or “+” in the table, and any peptides with a fold of change less than 1.3 fold were determined to be “unchanged” or “0” in the table. Those peptides that were not identified were marked as “NA” in the table. […]

O=C(CCCCCCNC(=O)c1cnc(N(c2ccccc2)c2ccccc2)nc1)NO [Compound A, 2-(diphenylamino)-N-(7-(hydroxyamino)-7-oxoheptyl)pyrimidine-5-carboxamide]
light to heavy ratio (L/H ratio) of acetylated peptide VVK(ac)QASEGPLK (SEQ ID NO: 597) (Glyceraldehyde-3-phosphate dehydrogenase [263], gene GAPDH, inhibitor:DMSO): 0.45 log 2 | light to heavy ratio (L/H ratio) of acetylated peptide AHLQK(ac)LMSDK (SEQ ID NO: 549) (Glycyl-tRNA synthetase [224], gene GARS, inhibitor:DMSO): 0.39 log 2 | light to heavy ratio (L/H ratio), log 2 scale, acetylated peptide LLLLGAGESGK(ac)STIVK (SEQ ID NO: 769) (Guanine nucleotide-binding protein G(olf) subunit alpha [55], gene GNAL, drug:DMSO): 0.97 | L/H ratio of acetylated peptide AGGK(ac)AGK(ac)DSGK (SEQ ID NO: 15) (H2AFV [5:8], log 2 scale, drug vs DMSO): 1.00 | light to heavy ratio (L/H ratio) of acetylated peptide TLAMDVMK(ac)PR (SEQ ID NO: 501) (H(+)/CI(−) exchange transporter 5 [587], gene CLCN5, inhibitor:DMSO): −0.76 log 2 | light to heavy ratio (L/H ratio) of acetylated peptide FSPDDK(ac)YSR (SEQ ID NO: 504) (H/ACA ribonucleoprotein complex subunit 3 [40], gene NOP10, inhibitor:DMSO): −0.68 log 2 | L/H ratio of acetylated peptide GQQQVFK(ac)GLNDK (SEQ ID NO: 41) (HADHA [406], log 2 scale, drug vs DMSO): 0.00 | L/H ratio of acetylated peptide (HGMK(ac)VVLISR (SEQ ID NO: 494), Estradiol 17-beta-dehydrogenase 12 [76], HSD17B12): −1.00 log 2 | L/H ratio of acetylated peptide PDPAK(ac)SAPAPK(ac)K (SEQ ID NO: 16) (HIST1H2BO [6:12], log 2 scale, drug vs DMSO): 1.00 | light to heavy ratio (L/H ratio) of acetylated peptide SLNLK(ac)HIK (SEQ ID NO: 607) (HLA-B associated transcript 1 [188], gene SNORD84, DDX39B, inhibitor:DMSO): 0.46 log 2 | L/H ratio of acetylated peptide K(ac)[…] (SEQ ID NO: 42) (HMGB2 [30], log 2 scale, drug vs DMSO): 0.00 | L/H ratio of acetylated peptide RGEEGHDPK(ac)EPEQLR (SEQ ID NO: 43) (HNRNPA3 [29], log 2 scale, drug vs DMSO): 0.00 | L/H ratio of acetylated peptide […](ac)WQSLK (SEQ ID NO: 44) (HNRNPM [83], log 2 scale, drug vs DMSO): 0.00 | L/H ratio of acetylated peptide AAEVLNK(ac)HSLSGRPLK (SEQ ID NO: 3) (HNRNPM [134], log 2 scale, drug vs DMSO): 0.00 | L/H ratio of acetylated peptide VK(ac)VLFVR (SEQ ID NO: 45) (HNRNPR [341], log 2 scale, drug vs DMSO): 0.00 | L/H ratio of acetylated peptide […](ac)YSR (SEQ ID NO: 46) (HNRNPU [246], log 2 scale, drug vs DMSO): 0.00 | L/H ratio of acetylated peptide TTWVTK(ac)HAAENPGK (SEQ ID NO: 47) (HNRNPU [497], log 2 scale, drug vs DMSO): 0.00 | L/H ratio of acetylated peptide NK(ac)EIFLR (SEQ ID NO: 52) (HSP90B1 [97], log 2 scale, drug vs DMSO): 0.00 | L/H ratio of acetylated peptide […](ac)IR (SEQ ID NO: 49) (HSP90B1 [114], log 2 scale, drug vs DMSO): 0.00 | L/H ratio of acetylated peptide EELVK(ac)NLGTIAK (SEQ ID NO: 48) (HSP90B1 [161], log 2 scale, drug vs DMSO): 0.00 | L/H ratio of acetylated peptide ETLQQHK(ac)LLK (SEQ ID NO: 50) (HSP90B1 [455], log 2 scale, drug vs DMSO): 0.00 | L/H ratio of acetylated peptide IADDK(ac)YNDTFWK (SEQ ID NO: 51) (HSP90B1 [479], log 2 scale, drug vs DMSO): 0.00 | L/H ratio of acetylated peptide […](ac)R (SEQ ID NO: 54) (HSPA5 [96], log 2 scale, drug vs DMSO): 0.00 | L/H ratio of acetylated peptide […](ac)R (SEQ ID NO: 53) (HSPA5 [213], log 2 scale, drug vs DMSO): 0.00 | L/H ratio of acetylated peptide […](ac)R (SEQ ID NO: 55) (HSPA8 [71], log 2 scale, drug vs DMSO): 0.00 | light to heavy ratio (L/H ratio) of acetylated peptide […](ac)R (SEQ ID NO: 267) (Heat shock 70 kDa protein 1A/1B [71], HSPA1B, HSPA1A, drug:DMSO): 0.44 log 2 | light to heavy ratio (L/H ratio), log 2 scale, acetylated peptide TEMDWVLK(ac)[…] (SEQ ID NO: 797) (Heterogeneous nuclear ribonucleoprotein F [98], gene HNRNPF, drug:DMSO): 1.00 | light to heavy ratio (L/H ratio) of acetylated peptide LLLFK(ac)TFSR (SEQ ID NO: 514) (Heterogeneous nuclear ribonucleoprotein U-like protein 2 [553], gene HNRNPUL2, inhibitor:DMSO): −0.57 log 2 | light to heavy ratio (L/H ratio) of acetylated peptide YEK(ac)DIAAYR (SEQ ID NO: 595) (High mobility group protein B2 [157], gene HMGB2, inhibitor:DMSO): 0.45 log 2 | light to heavy ratio (L/H ratio), log 2 scale, acetylated peptide AGK(ac)DSGK(ac)AK (SEQ ID NO: 786) (Histone H2A.V [8:12], gene H2AFV, drug:DMSO): 1.00 | light to heavy ratio (L/H ratio), log 2 scale, acetylated peptide GSK(ac)K(ac)AITK (SEQ ID NO: 790) (Histone H2B type 1-B [16:17], gene HIST1H2BB, drug:DMSO): 1.00 | light to heavy ratio (L/H ratio), log 2 scale, acetylated peptide PEPTK(ac)SAPAPK(ac)K (SEQ ID NO: 791) (Histone H2B type 1-D [6:12], gene HIST1H2BD, drug:DMSO): 1.00 | light to heavy ratio (L/H ratio), log 2 scale, acetylated peptide GSK(ac)K(ac)AINK (SEQ ID NO: 792) (Histone H2B type 1-M [16:17], gene HIST1H2BM, drug:DMSO): 1.00 | light to heavy ratio (L/H ratio), log 2 scale, acetylated peptide K(ac)AINK(ac)AQK (SEQ ID NO: 793) (Histone H2B type 1-M [17:21], gene HIST1H2BM, drug:DMSO): 1.00 | light to heavy ratio (L/H ratio) of acetylated peptide PEPAK(ac)SAPAPK(ac)K (SEQ ID NO: 309) (Histone H2B type 2-E [6:12], HIST2H2BE, drug:DMSO): 1.00 log 2
